In publication PMC6934184, “Selective DNA-PKcs inhibition extends the therapeutic index of localized radiotherapy and chemotherapy” (The Journal of Clinical Investigation, 2019):

Molecular target: T1, CLK2 (Homo sapiens, UniProt P49760)
T1 construct: purchased Thermo Fisher Scientific (Life Technologies) SelectScreen
Test: SelectScreen Z'LYTE
Type: biochemical
Outline: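 Percent values come from Thermo SelectScreen profiling of NU5455, combining activity and binding assays. CSF1R was run in Z'LYTE format at Km app ATP, and CAMK1 in Adapta format with ATP listed at 10.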

T1 sequence (P49760 whole entry): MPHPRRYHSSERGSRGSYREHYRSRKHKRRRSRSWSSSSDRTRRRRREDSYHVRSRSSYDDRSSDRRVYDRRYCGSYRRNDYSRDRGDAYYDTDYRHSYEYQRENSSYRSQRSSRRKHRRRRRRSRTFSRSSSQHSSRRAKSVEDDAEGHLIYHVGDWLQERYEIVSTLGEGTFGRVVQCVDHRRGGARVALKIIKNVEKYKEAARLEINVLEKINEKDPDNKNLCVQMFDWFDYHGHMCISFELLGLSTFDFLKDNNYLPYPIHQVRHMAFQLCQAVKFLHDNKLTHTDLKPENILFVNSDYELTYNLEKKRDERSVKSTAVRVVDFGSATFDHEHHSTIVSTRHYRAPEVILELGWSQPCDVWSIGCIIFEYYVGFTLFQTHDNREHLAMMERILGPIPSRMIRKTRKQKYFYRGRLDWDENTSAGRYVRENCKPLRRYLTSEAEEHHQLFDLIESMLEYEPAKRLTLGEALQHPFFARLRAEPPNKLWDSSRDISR

## CN(C(=O)CN1CCOCC1)c1ccc2sc3c(-c4cccc5c(=O)cc(N6CC7CCC(C6)O7)oc45)cccc3c2c1 [NU5455]
  inhibition at 1 µM: 4.1%
